In ChEMBL document CHEMBL5576068, “Design, synthesis, and biological antitumor evaluation of tetrahydroisoquinoline derivatives” (Bioorg Med Chem Lett, 2024):

How the values were obtained:
HCT-116 [1] = assay: Cytotoxicity against human HCT-116 cells assessed as cell inhibition rate at 40 uM by CCK8 assay relative to control; format: functional
MDA-MB-231 [2] = assay: Cytotoxicity against human MDA-MB-231 cells assessed as cell inhibition rate at 40 uM by CCK8 assay relative to control; format: functional
HepG2 [3] = assay: Cytotoxicity against human HepG2 cells assessed as cell inhibition rate at 40 uM by CCK8 assay relative to control; format: functional
A-375 [4] = assay: Cytotoxicity against human A-375 cells assessed as cell inhibition rate at 40 uM by CCK8 assay relative to control; format: functional
HCT-116 [5] = assay: Cytotoxicity against human HCT-116 cells measured for 48 hrs; format: functional, cell-based; details: HCT-116, 48 h
MDA-MB-231 [6] = assay: Cytotoxicity against human MDA-MB-231 cells measured for 48 hrs; format: functional, cell-based; details: MDA-MB-231, 48 h
HepG2 [7] = assay: Cytotoxicity against human HepG2 cells measured for 48 hrs; format: functional, cell-based; details: HepG2, 48 h
A-375 [8] = assay: Cytotoxicity against human A-375 cells measured for 48 hrs; format: functional, cell-based; details: A-375, 48 h

Structure (SMILES)	inhibition at 40 µM (HCT-116 [1]) [%]	inhibition at 40 µM (MDA-MB-231 [2]) [%]	inhibition at 40 µM (HepG2 [3]) [%]	inhibition at 40 µM (A-375 [4]) [%]	IC50 (HCT-116 [5]) [µM]	IC50 (MDA-MB-231 [6]) [µM]	IC50 (HepG2 [7]) [µM]	IC50 (A-375 [8]) [µM]
COc1cc2c(cc1OCc1ccccc1)CN(C)CC2	32.9	30.2	16.3	14.7	–	–	–	–
CCCCC[C@H]1CC[C@H](c2ccc(Oc3ccc(C[N+]4(C)CCc5cc(OC)c(OCc6ccccc6)cc5C4)cn3)cc2)CC1 (some centres undefined)	–	–	–	–	9	11.4	11.6	8.7
CCCCN(CCCC)c1ccc(Oc2ccc(C[N+]3(C)CCc4cc(OC)c(OCc5ccccc5)cc4C3)cn2)cc1 (centres undefined)	–	–	–	–	10.5	> 20	10	10.3
COc1cc2c(cc1OCc1ccccc1)C[N+](C)(Cc1ccc(Br)cn1)CC2 (centres undefined)	16	23.7	27.8	31.2	–	–	–	–
COc1cc2c(cc1OCc1ccccc1)C[N+](C)(Cc1ccc3ccccc3n1)CC2 (centres undefined)	3.2	2.75	7.43	13	–	–	–	–
C[N+]1(Cc2ccc(Br)nc2)CCc2cc3c(cc2C1)OCO3 (centres undefined)	29.2	23.2	19.8	9.69	–	–	–	–
COc1cc2c(cc1OCc1ccccc1)C[N+](C)(Cc1cnc3ccccc3c1)CC2 (centres undefined)	8.29	7.43	6.8	13.9	–	–	–	–
COc1cc2c(cc1OCc1ccccc1)C[N+](C)(Cc1ccc(Oc3ccc(-c4ccc(C#N)cc4)cc3)nc1)CC2 (centres undefined)	–	–	–	–	7.5	> 20	3.8	9.7
COc1cc2c(cc1O)C[N+](C)(Cc1ccc(Br)nc1)CC2 (centres undefined)	34.5	34.4	15	12.3	–	–	–	–
COc1cc2c(cc1OCc1ccccc1)C[N+](C)(Cc1ccc(Br)nc1)CC2 (centres undefined)	20.7	17.4	27.3	22.2	–	–	–	–
COc1cc2c(cc1OC)C[N+](C)(Cc1ccc(Br)nc1)CC2 (centres undefined)	18.4	30.5	19.8	41.1	–	–	–	–
COc1cc2c(c(OC)c1OC)CC[N+](C)(Cc1ccc(Br)nc1)C2 (centres undefined)	53.4	35.1	60.6	24.8	–	–	–	–
COc1cc2c(cc1OCc1ccccc1)C[N+](C)(Cc1ccccn1)CC2 (centres undefined)	11.6	9.61	18.9	13.7	–	–	–	–
COc1cc2c(cc1OCc1ccccc1)C[N+](C)(Cc1ccc(Oc3ccc(/N=N/c4ccccc4)cc3)nc1)CC2 (centres undefined)	–	–	–	–	11.6	13.3	13.1	5.5
COc1cc2c(cc1OCc1ccccc1)C[N+](C)(Cc1ccc(Oc3ccc(OCc4ccccc4)cc3)nc1)CC2 (centres undefined)	–	–	–	–	8.9	12.4	6.8	11.6
COc1cc2c(cc1OCc1ccccc1)C[N+](C)(Cc1ccc(Oc3ccc(Oc4ccc(C(F)(F)F)cc4)cc3)nc1)CC2 (centres undefined)	–	–	–	–	4.1	9.8	4.1	6.1

Structure (SMILES)	inhibition at 40 µM (HCT-116 [1]) [%]	inhibition at 40 µM (MDA-MB-231 [2]) [%]	inhibition at 40 µM (HepG2 [3]) [%]	inhibition at 40 µM (A-375 [4]) [%]	IC50 (HCT-116 [5]) [µM]	IC50 (MDA-MB-231 [6]) [µM]	IC50 (HepG2 [7]) [µM]	IC50 (A-375 [8]) [µM]
COc1ccc2c(c1OC)C(=O)O[C@@H]2[C@H]1c2c(cc3c(c2OC)OCO3)CCN1C [NOSCAPINE]	–	–	–	–	154	120	120	180
COc1cc2c(cc1OCc1ccccc1)C[N+](C)(Cc1ccc(Nc3ccccc3[N+](=O)[O-])nc1)CC2 (centres undefined)	–	–	–	–	4.6	10	4.8	7.6
COc1cc2c(cc1OCc1ccccc1)C[N+](C)(Cc1ccc(Oc3ccc(Oc4ccccc4)cc3)nc1)CC2 (centres undefined)	–	–	–	–	11.6	12.6	12.6	7.6
COc1cc2c(cc1OCc1ccccc1)C[N+](C)(Cc1ccc(Oc3cc(Cl)ccc3Oc3ccc(Cl)cc3Cl)nc1)CC2 (centres undefined)	–	–	–	–	4.5	9.3	4.7	5.4
COc1cc2c(cc1OCc1ccccc1)C[N+](C)(Cc1ccc(Oc3ccc(C45CC6CC(CC(C6)C4)C5)cc3)nc1)CC2 (centres undefined)	–	–	–	–	2.5	4.6	4.2	12.4
COc1cc2c(cc1OCc1ccccc1)C[N+](C)(Cc1ccc([N+](=O)[O-])nc1)CC2 (centres undefined)	26.6	10.1	22.6	16.1	–	–	–	–
COc1cc2c(cc1OCc1ccccc1)C[N+](C)(Cc1ccc(Oc3ccc(C4CC4)cc3)nc1)CC2 (centres undefined)	–	–	–	–	> 20	12.5	19.2	15.7
COc1cc2c(cc1OCc1ccccc1)C[N+](C)(Cc1ccc(Oc3ccc(C4CCC(=O)CC4)cc3)nc1)CC2 (centres undefined)	–	–	–	–	18.7	12.4	> 20	17.9
COc1cc2c(cc1OCc1ccccc1)C[N+](C)(Cc1ccc(Oc3cc(C(F)(F)F)ccc3F)nc1)CC2 (centres undefined)	–	–	–	–	18.6	17.3	12.4	12.5
COc1cc2c(cc1OC)CN(C)CC2	25.2	30.7	20.6	27.4	–	–	–	–
COc1cc2c(cc1OCc1ccccc1)C[N+](C)(Cc1ccnc3ccccc13)CC2 (centres undefined)	12.1	8.29	11.7	9.33	–	–	–	–
COc1cc2c(cc1OCc1ccccc1)C[N+](C)(Cc1ccc(Oc3ccc(OC(C)C)cc3)nc1)CC2 (centres undefined)	–	–	–	–	19.3	> 20	9.67	13.5
COc1cc2c(cc1OCc1ccccc1)C[N+](C)(Cc1ccc(Oc3ccc(SC(F)(F)F)cc3)nc1)CC2 (centres undefined)	–	–	–	–	13.4	15.3	14.6	11.6
CN1CCc2cc3c(cc2C1)OCO3	18.2	14.5	26.8	22.5	–	–	–	–
COc1cc2c(c(OC)c1OC)CCN(C)C2	18.2	52	9.18	22.3	–	–	–	–
